Test results published in paper PMC10382406, “Head-to-head comparison of different classes of FAP radioligands designed to increase tumor residence time: monomer, dimer, albumin binders, and small molecules vs peptides” (European Journal of Nuclear Medicine and Molecular Imaging, 2023).

molecular target: T1, hFAP (Homo sapiens, UniProt Q12884); assay: In vitro inhibition assay on hFAP (substrate Z-Gly-Pro-AMC); type: biochemical; conditions: isolated hFAP 200 pM, Z-Gly-Pro-AMC 20 μM, room temperature
T1 sequence (Q12884 1-760): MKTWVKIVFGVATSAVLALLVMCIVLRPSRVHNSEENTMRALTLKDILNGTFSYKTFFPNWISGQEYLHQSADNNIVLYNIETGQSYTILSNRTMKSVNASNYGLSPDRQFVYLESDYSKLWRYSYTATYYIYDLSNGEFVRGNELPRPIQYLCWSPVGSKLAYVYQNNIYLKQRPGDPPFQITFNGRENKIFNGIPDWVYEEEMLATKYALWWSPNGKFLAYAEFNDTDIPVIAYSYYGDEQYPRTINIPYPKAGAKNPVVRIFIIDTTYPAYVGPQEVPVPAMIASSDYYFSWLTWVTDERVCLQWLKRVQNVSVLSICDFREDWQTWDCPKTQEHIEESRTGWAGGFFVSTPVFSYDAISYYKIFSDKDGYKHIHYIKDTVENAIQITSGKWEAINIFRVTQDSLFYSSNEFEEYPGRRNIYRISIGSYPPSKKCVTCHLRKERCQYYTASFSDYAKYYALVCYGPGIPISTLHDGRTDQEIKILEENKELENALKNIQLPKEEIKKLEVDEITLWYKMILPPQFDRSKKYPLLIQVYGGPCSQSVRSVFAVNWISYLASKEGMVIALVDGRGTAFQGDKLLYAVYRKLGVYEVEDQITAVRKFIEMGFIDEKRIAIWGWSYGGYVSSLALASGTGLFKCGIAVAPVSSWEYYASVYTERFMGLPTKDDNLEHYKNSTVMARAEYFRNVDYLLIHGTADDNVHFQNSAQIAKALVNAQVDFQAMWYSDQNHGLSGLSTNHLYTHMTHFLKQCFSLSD
Procedure: The IC50 of all the ligands against isolated hFAP protein was assessed by an inhibition assay following published protocols (Supplementary Information and Supplementary Fig. 3).
In vitro inhibition assay on hFAP
The enzymatic activity of hFAP on the substrate Z-Gly-Pro-AMC was measured at room temperature on a microtiter plate reader, monitoring the fluorescence at an excitation wavelength of 360 nm and an emission wavelength of 465 nm. The assay was performed by mixing the substrate (20 μM), hFAP (200 pM, constant), and the ligands in assay buffer (50 mM Tris, 1 M NaCl, 1 mg/mL BSA, pH=7.5), with serial dilution of the inhibitors ranging from 250 nM to 2 fM, 1:2 in a total volume of 20 μL.
Experiments were performed in triplicate, and the mean fluorescence values were fitted using GraphPad Prism 9 (equation used: Y = Bottom + (Top − Bottom)/(1 +
((X^HillSlope)/(IC50^HillSlope)))). The IC50 value is defined as the concentration of ligand (inhibitor) required to reduce the enzyme activity by 50% after the addition of the substrate.
The results are presented in the Supplemental Figure 3.
(1 picture or pasted object on this page, not shown here)

Compared with CN(CCCN1CCN(C(=O)CC(NC(=O)CN2CCN(CC(=O)O)CCN(CC(=O)O)CCN(CC(=O)O)CC2)C(=O)N2CCN(CCCN(C)c3ccc4nccc(C(=O)NCC(=O)N5CC(F)(F)C[C@H]5C#N)c4c3)CC2)CC1)c1ccc2nccc(C(=O)NCC(=O)N3CC(F)(F)C[C@H]3C#N)c2c1 (stereo partly shown) [FAPI-46-F1D], CC(C)Cc1ccc(C(C)C(=O)NCC(NC(=O)CN2CCN(CC(=O)O)CCN(CC(=O)O)CCN(CC(=O)O)CC2)C(=O)N2CCN(CCCN(C)c3ccc4nccc(C(=O)NCC(=O)N5CC(F)(F)C[C@H]5C#N)c4c3)CC2)cc1 (stereo partly shown) [FAPI-46-Ibu] is 4-fold lower in IC50: 0.158 ± 0.0145 nM for the first, 0.0394 ± 0.0161 nM for the second. The second is the more potent here.

Compared with Cc1cc(-c2ccc(NC(=O)CC(NC(=O)CN3CCN(CC(=O)O)CCN(CC(=O)O)CCN(CC(=O)O)CC3)C(=O)N3CCN(CCCN(C)c4ccc5nccc(C(=O)NCC(=O)N6CC(F)(F)CC6C#N)c5c4)CC3)c(C)c2)ccc1N=Nc1ccc2c(S(=O)(=O)O)cc(S(=O)(=O)O)c(N)c2c1O (stereo not shown) [FAPI-46-EB], CN(CCCN1CCN(C(=O)CN2CCN(CC(=O)O)CCN(CC(=O)O)CCN(CC(=O)O)CC2)CC1)c1ccc2nccc(C(=O)NCC(=O)N3CC(F)(F)C[C@H]3C#N)c2c1 [FAPI-46, reference compound] is 2.6-fold lower in IC50: 0.634 ± 0.102 nM for the first, 0.247 ± 0.017 nM for the second.
